In patent US20170189507A1, “NOVEL PEPTIDES AND COMBINATION OF PEPTIDES FOR USE IN IMMUNOTHERAPY AGAINST VARIOUS CANCERS” (immatics biotechnologies GmbH, priority 2015, published 2017):

Key:
HLA-A*02 = HLA-A*02 (Homo sapiens, UniProt P04439, D140Y/D185E/D98H/E176V/E277Q/G131W/G231S/I119V/I121R/I166T/I218V/N151K/N90K/P208A/P217A/Q86G/Q94H/R138H/R169H); test: MHC binding assay (UV-ligand exchange, beta2m ELISA), HLA-A*02; details: MHC class I binding score, peptide exchange yield
From the text: (§1) Candidate peptides for T cell based therapies according to the present invention were further tested for their MHC binding capacity (affinity). The individual peptide-MHC complexes were produced by UV-ligand exchange, where a UV-sensitive peptide is cleaved upon UV-irradiation, and exchanged with the peptide of interest as analyzed. Only peptide candidates that can effectively bind and stabilize the peptide-receptive MHC molecules prevent dissociation of the MHC complexes. To determine the yield of the exchange reaction, an ELISA was performed based on the detection of the light chain ([…] of stabilized MHC complexes. The assay was performed as generally described in Rodenko et al. (Rodenko et al., 2006).
(§2) 96 well MAXISorp plates (NUNC) were coated over night with 2 ug/ml streptavidin in PBS at room temperature, washed 4× and blocked for 1 h at 37° C. in 2% BSA containing blocking buffer. Refolded HLA-A*02:01/MLA-001 monomers served as standards, covering the range of 15-500 ng/ml. Peptide-MHC monomers of the UV-exchange reaction were diluted 100 fold in blocking buffer. Samples were incubated for 1 h at 37° C., washed four times, incubated with 2 ug/ml HRP conjugated anti-β2m for 1 h at 37° C., washed again and detected with TMB solution that is stopped with […]. Absorption was measured at 450 nm. Candidate peptides that show a high exchange yield (preferably higher than 50%, most preferred higher than 75%) are generally preferred for a generation and production of antibodies or fragments thereof, and/or T cell receptors or fragments thereof, as they show sufficient avidity to the MHC molecules and prevent dissociation of the MHC complexes.

CD8+ T cells = test: In vitro immunogenicity: T-cell priming with aAPCs loaded with peptide/MHC complexes and anti-CD28 antibody, pMHC multimer readout; assay type: cell-based, human; details: for Wells positive [%]: in vitro immunogenicity of HLA class I peptides, peptide-specific multimer+ wells after aAPC priming of CD8+ T cells; for Wells (in vitro immunogenicity of HLA class I peptides): CD8+ T cells of healthy donors, three stimulation cycles, multimer staining, Table 19A
Description: In an aspect, the peptides are pre-screened for immunogenicity before being included in the warehouse. By way of example, and not limitation, the immunogenicity of the peptides included in the warehouse is determined by a method comprising in vitro T-cell priming through repeated stimulations of CD8+ T cells from healthy donors with artificial antigen presenting cells loaded with peptide/MHC complexes and anti-CD28 antibody.
In order to obtain information regarding the immunogenicity of the TUMAPs of the present invention, the inventors performed investigations using an in vitro T-cell priming assay based on repeated stimulations of CD8+ T cells with artificial antigen presenting cells (aAPCs) loaded with peptide/MHC complexes and anti-CD28 antibody.
In order to perform in vitro stimulations by artificial antigen presenting cells loaded with peptide-MHC complex (pMHC) and anti-CD28 antibody, the inventors first isolated CD8+ T cells from fresh HLA-A*02 leukapheresis products via positive selection using CD8 microbeads (Miltenyi Biotec, Bergisch-Gladbach, Germany) of healthy donors obtained from the University clinics Mannheim, Germany, after informed consent.
PBMCs and isolated CD8+ lymphocytes were incubated in T-cell medium (TCM) until use consisting of RPMI-Glutamax (Invitrogen, Karlsruhe, Germany) supplemented with 10% heat inactivated human AB serum (PAN-Biotech, Aidenbach, Germany), 100 U/ml Penicillin/100 μg/ml Streptomycin (Cambrex, Cologne, Germany), 1 mM sodium pyruvate (CC Pro, Oberdorla, Germany), 20 μg/ml Gentamycin (Cambrex). 2.5 ng/ml IL7 (PromoCell, Heidelberg, Germany) and 10 U/ml IL-2 (Novartis Pharma, Nurnberg, Germany) were also added to the TCM at this step.
Generation of pMHC/anti-CD28 coated beads, T-cell stimulations and readout was performed in a highly defined in vitro system using four different pMHC molecules per stimulation condition and 8 different pMHC molecules per readout condition.
The purified co-stimulatory mouse IgG2a anti human CD28 Ab 9.3 (Jung et al., 1987) was chemically biotinylated using Sulfo-N-hydroxysuccinimidobiotin as recommended by the manufacturer (Perbio, Bonn, Germany). Beads used were 5.6 μm diameter streptavidin coated polystyrene particles (Bangs Laboratories, Illinois, USA).
pMHC used for positive and negative control stimulations were A*0201/MLA-001 (peptide […] (SEQ ID NO. 303) from modified Melan-A/MART-1) and A*0201/DDX5-001 ([…] from DDX5, SEQ ID NO. 304), respectively.
800.000 beads/200 μl were coated in 96-well plates in the presence of 4×12.5 ng different biotin-pMHC, washed and 600 ng biotin anti-CD28 were added subsequently in a volume of 200 μl. Stimulations were initiated in 96-well plates by co-incubating […] CD8+ T cells with 2×10^5 washed coated beads in 200 μl TCM supplemented with 5 ng/ml IL-12 (PromoCell) for 3 days at 37° C. Half of the medium was then exchanged by fresh TCM supplemented with 80 U/ml IL-2 and incubating was continued for 4 days at 37° C. This stimulation cycle was performed for a total of three times. For the pMHC multimer readout using 8 different pMHC molecules per condition, a twodimensional combinatorial coding approach was used as previously described (Andersen et al., 2012) with minor modifications encompassing coupling to 5 different fluorochromes. Finally, multimeric analyses were performed by staining the cells with Live/dead near IR dye (Invitrogen, Karlsruhe, Germany), CD8-FITC antibody clone SK1 (BD, Heidelberg, Germany) and fluorescent pMHC multimers. For analysis, a BD LSRII SORP cytometer equipped with appropriate lasers and filters was used. Peptide specific cells were calculated as percentage of total CD8+ cells. Evaluation of multimeric analysis was done using the FlowJo software (Tree Star, Oregon, USA). In vitro priming of specific multimer+ CD8+ lymphocytes was detected by comparing to negative control stimulations.

HLA-A*24 = test: MHC binding assay (UV-ligand exchange, beta2m ELISA), HLA-A*24; set-up: species or system human; details: MHC class I binding score, peptide exchange yield
From the text: as §1, §2

| Substance | Peptide exchange (HLA-A*02) | Wells (in vitro immunogenicity of HLA class I peptides) (CD8+ T cells) | also measured |
| --- | --- | --- | --- |
| 1 (LLYPEPWSV; listed as Homo sapiens) [compound 1] | ++++ (>=75% = ++++) | – | – |
| 3 (KLEENGDLYL; listed as Homo sapiens) [compound 3] | ++++ (>=75% = ++++) | – | – |
| 14 (ILAKDLFEI; listed as Homo sapiens) [compound 14] | ++++ (>=75% = ++++) | – | – |
| 16 (YTLDIPVLFGV; listed as Homo sapiens) [compound 16] | ++++ (>=75% = ++++) | – | – |
| 34 (FLLATEVVTV; listed as Homo sapiens) [compound 34] | ++++ (>=75% = ++++) | – | – |
| 42 (LLDSVSRL; listed as Homo sapiens) [compound 42] | + (<20% = +) | – | – |
| 51 (LLFSRLCGA; listed as Homo sapiens) [compound 51] | ++++ (>=75% = ++++) | – | – |
| 82 (FIFDEAEKL; listed as Homo sapiens) [compound 82] | + (<20% = +) | – | – |
| 84 (ALCPRIHEV; listed as Homo sapiens) [compound 84] | ++++ (>=75% = ++++) | – | – |
| 92 (GLLFSLRSV; listed as Homo sapiens) [compound 92] | ++++ (>=75% = ++++) | – | – |
| 95 (GLLGSLFFL; listed as Homo sapiens) [compound 95] | ++++ (>=75% = ++++) | – | – |
| 100 (ALLGMIIVGV; listed as Homo sapiens) [compound 100] | + (<20% = +) | – | – |
| 112 (SLGKFTFDV; listed as Homo sapiens) [compound 112] | ++++ (>=75% = ++++) | – | – |
| 120 (VTPVTVSAV; listed as Homo sapiens) [compound 120] | + (<20% = +) | – | – |
| 158 (HYSQELSLLYL; listed as Homo sapiens) [compound 158] | – | – | Wells positive [%] (CD8+ T cells): + (<20% = +); Peptide exchange (HLA-A*24): ++++ (>=75% = ++++) |
| 159 (LYNKGFIYL; listed as Homo sapiens) [compound 159] | – | – | Wells positive [%] (CD8+ T cells): ++++ (>=70% = ++++); Peptide exchange (HLA-A*24): ++++ (>=75% = ++++) |
| 163 (DYLKGLASF; listed as Homo sapiens) [compound 163] | – | – | Wells positive [%] (CD8+ T cells): + (<20% = +); Peptide exchange (HLA-A*24): ++++ (>=75% = ++++) |
| 165 (DYTTWTALL; listed as Homo sapiens) [compound 165] | – | – | Wells positive [%] (CD8+ T cells): + (<20% = +); Peptide exchange (HLA-A*24): ++++ (>=75% = ++++) |
| 167 (NYINRILKL; listed as Homo sapiens) [compound 167] | – | – | Wells positive [%] (CD8+ T cells): + (<20% = +); Peptide exchange (HLA-A*24): ++++ (>=75% = ++++) |
| 204 (TYELRYFQI; listed as Homo sapiens) [compound 204] | – | – | Wells positive [%] (CD8+ T cells): + (<20% = +); Peptide exchange (HLA-A*24): ++++ (>=75% = ++++) |
| 290 (KIVDFSYSV; listed as Homo sapiens) [compound 290] | – | ++ (20%-49% = ++) | – |
| 291 (KLDETGNSL; listed as Homo sapiens) [compound 291] | – | + (<20% = +) | – |
| 292 (GMMTAILGV; listed as Homo sapiens) [compound 292] | – | + (<20% = +) | – |
| 293 (FLVDGSWSI; listed as Homo sapiens) [compound 293] | – | + (<20% = +) | – |
| 295 (YYPGVILGF; listed as Homo sapiens) [compound 295] | – | ++ (20%-49% = ++) | – |
| 296 (TYVDSSHTI; listed as Homo sapiens) [compound 296] | – | + (<20% = +) | – |
| 297 (PFLQASPHF; listed as Homo sapiens) [compound 297] | – | ++ (20%-49% = ++) | – |
| 298 (RYLEGTSCI; listed as Homo sapiens) [compound 298] | – | + (<20% = +) | – |
| 300 (AYVLRLETL; listed as Homo sapiens) [compound 300] | – | + (<20% = +) | – |
| 301 (AYKPGALTF; listed as Homo sapiens) [compound 301] | – | + (<20% = +) | – |
